Assay [1] can be described thus: Inhibition of soybean lipoxygenase. Also noted: species or system Glycine max.
The test system of assay [2] is Radical scavenging activity. The assay can be described thus: Antioxidant activity assessed as DPPH free radical scavenging activity at 0.05 mM after 60 mins. The class given is functional.
The nature of assay [3]: Antioxidant activity assessed as inhibition of lipid peroxidation at 100 uM. Format: functional. Also noted: scale not given: the % may be the effect or the level left.
Assay [4] relates to Radical scavenging activity. Description: Antioxidant activity assessed as DPPH free radical scavenging activity at 0.05 mM after 20 mins. The class given is functional.
Assay [5] is described as follows: Antioxidant activity assessed as inhibition of xanthine-xanthine oxidase generated superoxide anion radical production at 100 uM by nitroblue tetrazolium method. The class given is functional. Also on record: scale not given: the % may be the effect or the level left.
Assay [6] relates to Radical scavenging activity. The assay can be described thus: Antioxidant activity assessed as DPPH free radical scavenging activity at 0.1 mM after 20 mins. The class given is functional.
The test system of assay [7] is Radical scavenging activity. The assay can be described thus: Antioxidant activity assessed as DPPH free radical scavenging activity at 0.1 mM after 60 mins. Format: functional.

In assay [1], `Cc1cc(C)c(C2=NOC(Cn3cnc4c(N5CCCC5)ncnc43)C2)c(C)c1` (stereo not given) showed a 50% inhibitory concentration (IC50) of 100 µM. Besides, the Activity in assay [2] worked out at 11%; in assay [3] it was 52%; in assay [4], 11%.

In assay [1], `Cc1cc(C)c(C2=NOC(Cn3cnc4c(N5CCOCC5)ncnc43)C2)c(C)c1` (stereo not given) gave a concentration for half-maximal inhibition (IC50) of 100 µM. Also, the Activity in assay [5] was 1%; in assay [6] it was 4%; in assay [3] it was 81%; in assay [7], 4%.

As for `CC(Cc1ccc(O)c(O)c1)C(C)Cc1ccc(O)c(O)c1` (stereo not given), the Activity was 72% in assay [2], 81% in assay [6], 83% in assay [7] and 68% in assay [4].

In the case of `O=C(O)/C=C/c1ccc(O)c(O)c1`, the Activity in assay [5] was 10%.

On to `Cc1c(C)c2c(c(C)c1O)CCC(C)(C(=O)O)O2` (stereo not given), for which the Activity in assay [3] was 73%.

Values taken from ChEMBL document CHEMBL1154338, “Synthesis of modified homo-N-nucleosides from the reactions of mesityl nitrile oxide with 9-allylpurines and their influence on lipid peroxidation and thrombin inhibition” (Bioorg Med Chem Lett, 2009).
